In US20230089867A1, “CYCLIC PENTAMER COMPOUNDS AS PROPROTEIN CONVERTASE SUBTILISIN/KEXIN TYPE 9 (PCSK9) INHIBITORS FOR THE TREATMENT OF METABOLIC DISORDER” (Novartis AG, priority 2018, published 2023):

Molecular target: human PCSK9 (Homo sapiens, UniProt Q8NBP7)
Assay: PCSK9 ligand binding TR-FRET assay (interference with binding of human PCSK9 to human LDLR)
Settings: for Max % inhibition: PCSK9 FRET assay, efficacy (Amax), 100% = 1 uM unlabeled human PCSK9, 0% = DMSO; for IC50: TR-FRET, human PCSK9 Alexa Fluor 647 / human LDLR extracellular domain-Europium Kryptate, read-out: PCSK9 FRET Assay IC50
Summary of the method: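 Threefold compound dilutions were pre-incubated 30 min with PCSK9, after which 4 nM Europium Kryptate-tagged human LDLR ectodomain was added for a further 2 h.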

human PCSK9, sequence (Q8NBP7 153-692): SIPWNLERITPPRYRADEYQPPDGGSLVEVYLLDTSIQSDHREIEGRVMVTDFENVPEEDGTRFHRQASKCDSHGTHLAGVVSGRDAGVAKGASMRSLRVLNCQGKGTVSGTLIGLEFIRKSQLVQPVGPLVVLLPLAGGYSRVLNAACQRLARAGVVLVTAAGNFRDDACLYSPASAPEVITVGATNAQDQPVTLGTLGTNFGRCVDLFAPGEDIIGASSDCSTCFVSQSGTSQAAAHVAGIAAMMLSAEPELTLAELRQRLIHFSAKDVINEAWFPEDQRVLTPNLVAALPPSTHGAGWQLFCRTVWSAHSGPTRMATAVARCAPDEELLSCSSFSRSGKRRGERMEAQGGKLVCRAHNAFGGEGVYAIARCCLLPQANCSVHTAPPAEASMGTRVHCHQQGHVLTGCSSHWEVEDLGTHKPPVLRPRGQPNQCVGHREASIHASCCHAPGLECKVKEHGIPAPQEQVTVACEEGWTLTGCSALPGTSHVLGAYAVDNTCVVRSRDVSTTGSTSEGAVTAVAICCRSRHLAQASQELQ
human PCSK9, sequence (Q8NBP7 31-152 partner limits assumed): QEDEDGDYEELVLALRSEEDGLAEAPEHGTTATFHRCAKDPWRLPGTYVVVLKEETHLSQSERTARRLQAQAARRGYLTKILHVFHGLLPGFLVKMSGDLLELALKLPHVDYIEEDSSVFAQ

Row | Max % inhibition [%] | IC50 [nM] | SMILES
1 | 90.72 | 9.9 | COC[C@@H]1NC(=O)[C@H](C)N(Cc2ccc(Cl)cc2Oc2ccc(-c3nnc4n3CCN(C(=O)[C@H]3CCNC3)C4)cc2)C(=O)C[C@@H](Cc2ccccc2)C(=O)N(C)[C@@H](C)CNC(=O)C[C@H](Cc2ccc(Cl)cc2)N(C)C1=O [Compound 131, (2S,5S,8S,13S,16R)-16-benzyl-1-(4-chloro-2-(4-(7-((S)-pyrrolidine-3-carbonyl)-5,6,7,8-tetrahydro-[1,2,4]triazolo[4,3-a]pyrazin-3-yl)phenoxy)benzyl)-8-(4-chlorobenzyl)-5-(methoxymethyl)-2,7,13,14-tetramethyl-1,4,7,11,14-pentaazacyclooctadecane-3,6,10,15,18-pentaone]
2 | 71.97 | 7.3 | COC[C@@H]1NC(=O)[C@H](C)N(Cc2ccc(Cl)cc2Oc2ccc(-c3cnc4n3CCN(C(=O)C(C)C)C4)cc2)C(=O)C[C@@H](Cc2ccccc2)C(=O)N(C)[C@@H](C)CNC(=O)C[C@H](Cc2ccc(Cl)cc2)N(C)C1=O [Compound 132, (2S,5S,8S,13S,16R)-16-benzyl-1-(4-chloro-2-(4-(7-isobutyryl-5,6,7,8-tetrahydroimidazo[1,2-a]pyrazin-3-yl)phenoxy)benzyl)-8-(4-chlorobenzyl)-5-(methoxymethyl)-2,7,13,14-tetramethyl-1,4,7,11,14-pentaazacyclooctadecane-3,6,10,15,18-pentaone]
3 | 93.15 | 5.8 | COC[C@@H]1NC(=O)[C@H](C)N(Cc2ccc(Cl)cc2Oc2ccc(-c3cnc4n3CCN(C(=O)C3CCOC3)C4)cc2)C(=O)C[C@@H](Cc2ccccc2)C(=O)N(C)[C@@H](C)CNC(=O)C[C@H](Cc2ccc(Cl)cc2)N(C)C1=O (stereo partly drawn) [Compound 133, (2S,5S,8S,13S,16R)-16-benzyl-1-(4-chloro-2-(4-(7-(tetrahydrofuran-3-carbonyl)-5,6,7,8-tetrahydroimidazo[1,2-a]pyrazin-3-yl)phenoxy)benzyl)-8-(4-chlorobenzyl)-5-(methoxymethyl)-2,7,13,14-tetramethyl-1,4,7,11,14-pentaazacyclooctadecane-3,6,10,15,18-pentaone]
4 | 98.77 | 39.5 | COC[C@@H]1NC(=O)[C@H](C)N(Cc2ccc(Cl)cc2Oc2ccc(-n3nnc(CN(C)C)c3C)cc2)C(=O)C[C@@H](Cc2ccccc2)C(=O)N(C)[C@@H](C)CNC(=O)C[C@H](Cc2ccc(Cl)cc2)N(C)C1=O.O=CO [Compound 134, (2S,5S,8S,13S,16R)-16-benzyl-1-(4-chloro-2-(4-(4-((dimethylamino)methyl)-5-methyl-1H-1,2,3-triazol-1-yl)phenoxy)benzyl)-8-(4-chlorobenzyl)-5-(methoxymethyl)-2,7,13,14-tetramethyl-1,4,7,11,14-pentaazacyclooctadecane-3,6,10,15,18-pentaone formate]
5 | 58.33 | 9.4 | COC[C@@H]1NC(=O)[C@H](C)N(Cc2ccc(Cl)cc2Oc2ccc(-c3cncc(C4CN(C)CCN4C)c3)cc2)C(=O)C[C@@H](Cc2ccccc2)C(=O)N(C)[C@@H](C)CNC(=O)C[C@H](Cc2ccc(Cl)cc2)N(C)C1=O (stereo partly drawn) [Compound 135, (2S,5S,8S,13S,16R)-16-benzyl-1-(4-chloro-2-(4-(5-(1,4-dimethylpiperazin-2-yl)pyridin-3-yl)phenoxy)benzyl)-8-(4-chlorobenzyl)-5-(methoxymethyl)-2,7,13,14-tetramethyl-1,4,7,11,14-pentaazacyclooctadecane-3,6,10,15,18-pentaone]
6 | 96.16 | 5 | COC[C@@H]1NC(=O)[C@H](C)N(Cc2ccc(Cl)cc2Oc2ccc(-c3cncc(C4=CCNCC4)c3)cc2)C(=O)C[C@@H](Cc2ccccc2)C(=O)N(C)[C@@H](C)CNC(=O)C[C@H](Cc2ccc(Cl)cc2)N(C)C1=O [Compound 136, (2S,5S,8S,13S,16R)-16-benzyl-1-(4-chloro-2-(4-(1′,2′,3′,6′-tetrahydro-[3,4′-bipyridin]-5-yl)phenoxy)benzyl)-8-(4-chlorobenzyl)-5-(methoxymethyl)-2,7,13,14-tetramethyl-1,4,7,11,14-pentaazacyclooctadecane-3,6,10,15,18-pentaone]
7 | 90.76 | 8.4 | COC[C@@H]1NC(=O)[C@H](C)N(Cc2ccc(Cl)cc2Oc2ccc(-c3cncc(C4CCNCC4)c3)cc2)C(=O)C[C@@H](Cc2ccccc2)C(=O)N(C)[C@@H](C)CNC(=O)C[C@H](Cc2ccc(Cl)cc2)N(C)C1=O [Compound 137, (2S,5S,8S,13S,16R)-16-benzyl-1-(4-chloro-2-(4-(5-(piperidin-4-yl)pyridin-3-yl)phenoxy)benzyl)-8-(4-chlorobenzyl)-5-(methoxymethyl)-2,7,13,14-tetramethyl-1,4,7,11,14-pentaazacyclooctadecane-3,6,10,15,18-pentaone]
8 | 98.02 | 1.5 | COC[C@@H]1NC(=O)[C@H](C)N(Cc2ccc(Cl)cc2Oc2ccc(-c3cnc(CN4CCCC4)n3C)cc2)C(=O)C[C@@H](Cc2ccccc2)C(=O)N(C)[C@@H](C)CNC(=O)C[C@H](Cc2ccc(Cl)cc2)N(C)C1=O [Compound 138, (2S,5S,8S,13S,16R)-16-benzyl-1-(4-chloro-2-(4-(1-methyl-2-(pyrrolidin-1-ylmethyl)-1H-imidazol-5-yl)phenoxy)benzyl)-8-(4-chlorobenzyl)-5-(methoxymethyl)-2,7,13,14-tetramethyl-1,4,7,11,14-pentaazacyclooctadecane-3,6,10,15,18-pentaone]
9 | 65.69 | 5.7 | C[C@H]1CNC(=O)C[C@H](Cc2ccc(Cl)cc2)N(C)C(=O)[C@H](CO)NC(=O)[C@H](C)N(Cc2ccc(Cl)cc2Oc2ccc3c(c2)C(=O)N(C2CCN(CC4CC4)CC2)C3)C(=O)C[C@@H](Cc2ccccc2)C(=O)N1C [Compound 139, (2S,5S,8S,13S,16R)-16-benzyl-1-(4-chloro-2-((2-(1-(cyclopropylmethyl)piperidin-4-yl)-3-oxoisoindolin-5-yl)oxy)benzyl)-8-(4-chlorobenzyl)-5-(hydroxymethyl)-2,7,13,14-tetramethyl-1,4,7,11,14-pentaazacyclooctadecane-3,6,10,15,18-pentaone]
10 | 102.37 | 882 | COC[C@@H]1NC(=O)[C@H](C)N(Cc2ccc(Cl)cc2Oc2ccc(-c3cnc(CN(C)C)n3C)cc2)C(=O)CCC(=O)N(C)CCNC(=O)C[C@H](Cc2ccc(Cl)cc2)N(C)C1=O [Compound 141, (2S,5S,8S)-1-(4-chloro-2-(4-(2-((dimethylamino)methyl)-1-methyl-1H-imidazol-5-yl)phenoxy)benzyl)-8-(4-chlorobenzyl)-5-(methoxymethyl)-2,7,14-trimethyl-1,4,7,11,14-pentaazacyclooctadecane-3,6,10,15,18-pentaone]
11 | 100.91 | 1.2 | C[C@H]1CNC(=O)C[C@H](Cc2ccc(Cl)cc2)N(C)C(=O)[C@H](CO)NC(=O)[C@H](C)N(Cc2ccc(Cl)cc2Oc2ccc(-c3cnc(CN(C)C)n3C)cc2)C(=O)C[C@@H](Cc2ccccc2)C(=O)N1C [Compound 142, (2S,5S,8S,13S,16R)-16-benzyl-1-(4-chloro-2-(4-(2-((dimethylamino)methyl)-1-methyl-1H-imidazol-5-yl)phenoxy)benzyl)-8-(4-chlorobenzyl)-5-(hydroxymethyl)-2,7,13,14-tetramethyl-1,4,7,11,14-pentaazacyclooctadecane-3,6,10,15,18-pentaone]
12 | 100.34 | 7 | COC[C@@H]1NC(=O)[C@H](C)N(Cc2ccc(Cl)cc2Oc2ccc(-c3cnc(CN(C)C)n3C)cc2)C(=O)C[C@@H](Cc2ccccc2)C(=O)N(C)C2(CC2)CNC(=O)C[C@H](Cc2ccc(Cl)cc2)N(C)C1=O [Compound 144, (6R,10S,13S,16S)-6-benzyl-9-(4-chloro-2-(4-(2-((dimethylamino)methyl)-1-methyl-1H-imidazol-5-yl)phenoxy)benzyl)-16-(4-chlorobenzyl)-13-(methoxymethyl)-4,10,15-trimethyl-4,9,12,15,19-pentaazaspiro[2.17]icosane-5,8,11,14,18-pentaone]
13 | 102.40 | 1.1 | COC[C@@H]1NC(=O)[C@H](C)N(Cc2ccc(Cl)cc2Oc2ccc(-c3cnc(CN(C)C)n3C)cc2)C(=O)C[C@@H](Cc2ccccc2)C(=O)N(C)[C@H]2CCCC[C@@H]2NC(=O)C[C@H](Cc2ccc(Cl)cc2)N(C)C1=O [Compound 145, (4S,7S,10S,14R,16aS,20aS)-14-benzyl-11-(4-chloro-2-(4-(2-((dimethylamino)methyl)-1-methyl-1H-imidazol-5-yl)phenoxy)benzyl)-4-(4-chlorobenzyl)-7-(methoxymethyl)-5,10,16-trimethylhexadecahydrobenzo[l][1,4,7,11,14]pentaazacyclooctadecine-2,6,9,12,15(3H)-pentaone]
14 | 51.67 | 3.1 | Cc1c(CN2CCCC2)cncc1-c1ccc(Oc2cc(Cl)ccc2CN2C(=O)C[C@@H](Cc3ccccc3)C(=O)N(C)[C@@H](C)CNC(=O)C[C@H](Cc3ccc(Cl)cc3)N(C)C(=O)[C@H](CO)NC(=O)[C@@H]2C)cc1 [Compound 146, (2S,5S,8S,13S,16R)-16-benzyl-1-(4-chloro-2-(4-(4-methyl-5-(pyrrolidin-1-ylmethyl)pyridin-3-yl)phenoxy)benzyl)-8-(4-chlorobenzyl)-5-(hydroxymethyl)-2,7,13,14-tetramethyl-1,4,7,11,14-pentaazacyclooctadecane-3,6,10,15,18-pentaone]
15 | 94.67 | 29.2 | C[C@H]1CNC(=O)C[C@H](Cc2ccc(Cl)cc2)N(C)C(=O)[C@H](Cc2nnn[nH]2)NC(=O)[C@H](C)N(Cc2ccc(Cl)cc2Oc2ccc(-c3cnc(CN(C)C)n3C)cc2)C(=O)C[C@@H](Cc2ccccc2)C(=O)N1C [Compound 148, (2S,5S,8S,13S,16R)-5-((1H-tetrazol-5-yl)methyl)-16-benzyl-1-(4-chloro-2-(4-(2-((dimethylamino)methyl)-1-methyl-1H-imidazol-5-yl)phenoxy)benzyl)-8-(4-chlorobenzyl)-2,7,13,14-tetramethyl-1,4,7,11,14-pentaazacyclooctadecane-3,6,10,15,18-pentaone]
